Source: US5292737A, “N,N'-bis(sulfonamido)-2-amino-4-iminonaphthalen-1-ones and N,N'-bis(amido)-2-amino-4-iminonaphthalen-1-ones” (Sphinx Pharmaceuticals Corporation, priority 1992, dated 1994)
Like-named read-outs stand apart in the source and are kept apart here.

Experiments:
[1] = target: T1, PKC isoenzyme βII (Homo sapiens, UniProt P05771); assay: Protein kinase C inhibition assay, PKC isoenzyme βII; type: biochemical; conditions: read-out: IC50 PKC βII
T1 construct: made in house; host or cells: baculovirus-insect cell expression system
T1 sequence (P05771 1-673 isoform P05771-2): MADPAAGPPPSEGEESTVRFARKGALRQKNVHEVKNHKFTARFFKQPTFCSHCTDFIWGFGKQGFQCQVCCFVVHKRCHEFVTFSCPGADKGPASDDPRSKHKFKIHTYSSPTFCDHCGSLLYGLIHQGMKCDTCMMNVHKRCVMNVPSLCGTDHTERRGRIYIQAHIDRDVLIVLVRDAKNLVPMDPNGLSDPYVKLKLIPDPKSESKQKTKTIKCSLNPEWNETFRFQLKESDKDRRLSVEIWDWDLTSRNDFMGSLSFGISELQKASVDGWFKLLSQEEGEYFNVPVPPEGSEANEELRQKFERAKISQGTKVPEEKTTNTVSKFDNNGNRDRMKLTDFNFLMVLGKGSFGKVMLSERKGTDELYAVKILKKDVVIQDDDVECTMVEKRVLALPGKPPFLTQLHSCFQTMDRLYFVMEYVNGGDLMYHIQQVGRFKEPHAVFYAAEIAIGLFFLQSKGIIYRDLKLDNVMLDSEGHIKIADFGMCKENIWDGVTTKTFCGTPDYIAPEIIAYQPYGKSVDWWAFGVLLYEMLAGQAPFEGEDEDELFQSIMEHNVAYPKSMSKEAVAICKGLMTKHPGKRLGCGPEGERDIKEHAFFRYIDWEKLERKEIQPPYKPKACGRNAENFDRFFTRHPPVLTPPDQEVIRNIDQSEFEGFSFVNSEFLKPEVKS
Method: (§1) A protein kinase C (PKC) assay is designed to duplicate the in vivo conditions required for protein kinase C function. Therefore, pH, salt and cofactor concentrations are similar to physiologic levels. Either lysine rich histone H1 (H1) or Myelin basic protein (Mbp) are used in the assay as the phosphorylation acceptor-protein because they are readily available and serve as good substrates for protein kinase C. Enzyme was prepared from baculovirus-insect cell expression systems.
(§2) In the screening assay, phosphatidylserine (PS) and DAG were co-sonicated to form unilamellar and multilamellar vesicles. The concentration of lipids in the assay were suboptimal to maximize the detection potential of the assay for inhibitors or activators. Potential effector compounds were added to the assay in dimethylsulfoxide at four concentrations to give final inhibitor concentrations of 1, 10, 50, and 150 μM, respectively.
(§3) The assay was started with the addition of enzyme and stopped after 10 min by the addition of 25% trichloroacetic acid (TCA) and 1.0 mg/ml bovine serum albumin (BSA). The radioactive histone product was retained and washed on glass fiber filters that allow the unreacted P-ATP to pass through. The amount of phosphorylation was determined by measuring radioactivity with a scintillation counter. Controls were included in every assay to measure background activity in the absence of enzyme, activity in the absence of lipids, and the maximum enzyme activity with saturating levels of the activator lipids.
(§4) Results of the protein kinase C assay are shown in Table 4 in columns labeled α, βII, γ, δ, ε, and .zeta. which represent various PKC isoenzymes. Results are show as IC50, which is the concentration of test compound needed to inhibit 50% of the protein kinase C activity in controls.

[2] = target: T2, PKC isoenzyme α (Homo sapiens, UniProt P17252); assay: Protein kinase C inhibition assay, PKC isoenzyme α; type: biochemical; conditions: read-out: IC50 PKC α
T2 construct: made in house; host or cells: baculovirus-insect cell expression system
Method: as §1, §2, §3, §4

[3] = target: T3, PKC isoenzyme ζ (Homo sapiens, UniProt Q05513); assay: Protein kinase C inhibition assay, PKC isoenzyme ζ; type: biochemical; conditions: read-out: IC50 PKC .zeta.
T3 construct: made in house; host or cells: baculovirus-insect cell expression system
T3 sequence (Q05513 1-592): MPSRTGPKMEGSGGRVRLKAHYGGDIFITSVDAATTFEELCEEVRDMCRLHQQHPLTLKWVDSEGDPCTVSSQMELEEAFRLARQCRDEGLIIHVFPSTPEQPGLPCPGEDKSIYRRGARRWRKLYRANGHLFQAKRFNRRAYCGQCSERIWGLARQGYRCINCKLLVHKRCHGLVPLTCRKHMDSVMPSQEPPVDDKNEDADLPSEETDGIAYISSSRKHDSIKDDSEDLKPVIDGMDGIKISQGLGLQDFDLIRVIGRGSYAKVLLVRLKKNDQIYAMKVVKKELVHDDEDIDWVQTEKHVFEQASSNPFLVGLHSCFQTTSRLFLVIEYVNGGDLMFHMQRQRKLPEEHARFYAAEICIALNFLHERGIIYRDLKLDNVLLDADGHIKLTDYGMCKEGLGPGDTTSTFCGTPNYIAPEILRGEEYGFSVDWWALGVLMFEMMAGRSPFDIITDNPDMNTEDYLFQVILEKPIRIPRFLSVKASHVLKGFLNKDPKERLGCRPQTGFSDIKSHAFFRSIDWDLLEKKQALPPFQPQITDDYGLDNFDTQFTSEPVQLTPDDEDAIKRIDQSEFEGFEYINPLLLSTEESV
Method: as §1, §2, §3, §4

[4] = target: T4, PKC isoenzyme ε (Homo sapiens, UniProt Q02156); assay: Protein kinase C inhibition assay, PKC isoenzyme ε; type: biochemical; conditions: read-out: IC50 PKC ε
T4 construct: made in house; host or cells: baculovirus-insect cell expression system
T4 sequence (Q02156 1-737): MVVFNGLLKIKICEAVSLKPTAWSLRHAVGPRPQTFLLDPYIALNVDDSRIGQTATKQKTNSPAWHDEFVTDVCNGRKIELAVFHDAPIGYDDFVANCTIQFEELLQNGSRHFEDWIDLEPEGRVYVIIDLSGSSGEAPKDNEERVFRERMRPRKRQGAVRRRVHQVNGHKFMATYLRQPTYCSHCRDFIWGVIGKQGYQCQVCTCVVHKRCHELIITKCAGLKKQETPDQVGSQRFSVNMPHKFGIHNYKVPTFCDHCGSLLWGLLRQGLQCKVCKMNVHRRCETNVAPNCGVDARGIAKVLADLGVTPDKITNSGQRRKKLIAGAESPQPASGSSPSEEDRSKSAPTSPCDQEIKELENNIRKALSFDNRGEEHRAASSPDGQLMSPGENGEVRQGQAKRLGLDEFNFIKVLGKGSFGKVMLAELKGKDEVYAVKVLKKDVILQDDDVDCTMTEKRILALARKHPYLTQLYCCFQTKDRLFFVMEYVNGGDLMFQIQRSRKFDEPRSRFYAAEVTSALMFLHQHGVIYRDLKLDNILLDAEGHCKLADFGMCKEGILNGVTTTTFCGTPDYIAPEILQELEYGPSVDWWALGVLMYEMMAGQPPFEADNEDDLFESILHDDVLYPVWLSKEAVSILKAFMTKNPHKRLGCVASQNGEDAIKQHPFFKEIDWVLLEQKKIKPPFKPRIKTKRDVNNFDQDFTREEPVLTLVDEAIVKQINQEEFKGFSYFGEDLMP
Method: as §1, §2, §3, §4

[5] = target: T5, PKC isoenzyme γ (Homo sapiens, UniProt P05129); assay: Protein kinase C inhibition assay, PKC isoenzyme γ; type: biochemical; conditions: read-out: IC50 PKC γ
T5 construct: made in house; host or cells: baculovirus-insect cell expression system
Method: as §1, §2, §3, §4

[6] = target: T6, PKC isoenzyme δ (Homo sapiens, UniProt Q05655); assay: Protein kinase C inhibition assay, PKC isoenzyme δ; type: biochemical; conditions: read-out: IC50 PKC δ
T6 construct: made in house; host or cells: baculovirus-insect cell expression system
T6 sequence (Q05655 whole entry): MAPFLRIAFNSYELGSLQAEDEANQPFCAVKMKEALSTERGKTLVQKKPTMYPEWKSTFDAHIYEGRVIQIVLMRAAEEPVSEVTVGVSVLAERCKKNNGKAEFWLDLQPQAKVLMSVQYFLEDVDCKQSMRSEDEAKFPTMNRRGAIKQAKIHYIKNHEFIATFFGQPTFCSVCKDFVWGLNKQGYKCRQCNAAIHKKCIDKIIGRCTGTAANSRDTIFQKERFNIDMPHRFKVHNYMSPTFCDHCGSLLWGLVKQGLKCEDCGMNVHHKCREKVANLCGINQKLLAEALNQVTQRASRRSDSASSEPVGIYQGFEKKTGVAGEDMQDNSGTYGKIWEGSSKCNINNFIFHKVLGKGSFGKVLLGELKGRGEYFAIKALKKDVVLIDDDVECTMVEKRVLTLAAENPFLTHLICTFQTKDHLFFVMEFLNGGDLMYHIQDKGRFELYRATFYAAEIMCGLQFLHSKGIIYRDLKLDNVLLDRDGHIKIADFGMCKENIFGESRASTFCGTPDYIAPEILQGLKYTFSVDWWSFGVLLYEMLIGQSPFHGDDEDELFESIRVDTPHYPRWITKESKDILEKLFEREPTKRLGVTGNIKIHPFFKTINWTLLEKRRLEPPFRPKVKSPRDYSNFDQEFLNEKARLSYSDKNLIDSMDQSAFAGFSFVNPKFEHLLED
Method: as §1, §2, §3, §4

[7] = tested on: human neutrophils; assay: Neutrophil Superoxide Anion (O2) Release Assay, PMA-stimulated; type: cell-based; conditions: Homo sapiens, Neutrophil, read-out: Neutrophil Superoxide Release IC50
From the text: Phorbol-12,13-myristate acetate (PMA) stimulates O2 production in human neutrophils which in turn reduces cytochrome C. Reducing cytochrome C increases absorbance and the change in optical density (OD) is proportional to the amount of O2 produced by PMA stimulation. Inhibition is expressed as an IC50 value and is the amount of test compound that will inhibit fifty percent of the PMA-stimulated respiratory outburst, i.e. O2^31 production (Lherer et al. (1981) J. Clinical lnvest. 68:1314; Roberts et al. (1982) J. Immunological Methods 49:193).
Human donor blood in 0.38% Sodium Citrate was centrifuged for 10 minutes at 160 ×g at room temperature. Platelet-rich plasma was removed leaving the buffy coat and the red cell-enriched fraction. Saline with 0.38% Sodium Citrate was added to this fraction up to the original blood volume. The enriched blood sample was diluted 1:1 (v:v) with 3% dextran T500 (Pharmacia) in normal saline and placed in a 60 cc syringe, inverted over a beaker and allowed to settle 30 minutes at room temperature.
Leukocyte-enriched plasma was removed from the syringe, placed into 50 ml polypropylene conical centrifuge tubes and underlaid with 15-20 ml Lymphocyte Separation Medium (LSM Organon Technica). The tubes were centrifuged for 40 minutes at 500×g at room temperature. The plasma, buffy coat and LSM were aspirated off the pellets which contained red blood cells and neutrophils.
The pellets were vortexed and 10 ml ice-cold 0.2% NaCl was added to lyse the red blood cells while vortexing again for 10 seconds. Ice-cold 1.6% NaCl was added while vortexing for 10 seconds. The cells were combined from multiple tubes, centrifuged 10 min at 400×g at 4° C. This red cell lysis was repeated and the resulting neutrophil pellet was washed once in Reaction HBSS (GIBCO, HBSS with Ca^++ and Mg^++,.238% HEPES, 0.1% dextrose, 0.1% RIA grade bovine serum albumin, PH 7.2). The cells were resuspended in 1/5 the original blood volume with Reaction HBSS, counted and adjusted to 4.0×10^6 cells/ml at 4° C.
Duplicate samples of neutrophils were tested in 12×75 mm polypropylene tubes containing 0.25 ml of the neutrophil suspension. Cytochrome C mix (0.25 ml, 6.0 mg/ml cytochrome C type IV (Sigma) plus 1200 U/ml bovine liver catalase (Sigma) in Reaction HBSS described above) was added. PMA was added at 2×the final concentration in 0.5 ml of Reaction HBSS. PMA final test concentration were 0.0, 0.3, 9.0, 27.0, and 81.0 ng/ml. The tubes were vortexed and incubated for 10 minutes at 37° C. with shaking. After chilling for 5 minutes at 4° C. and centrifuging for 10 minutes at 4° C., 550×g, 0.5 ml of supernatant was removed from each tube. Normal saline (0.5 ml) was added to each 0.5 ml sample of supernatant and the absorbance of each sample was read at 550 nm on a spectrophotometer (Shimadzu). The PMA concentration which gives nearly maximal stimulation of superoxide release was determined.
The test samples of neutrophils were prepared as in the PMA dose response through addition of cytochrome C mix. Then 0.4 ml of Reaction HBSS as a control or test agent at 2.5×final test concentration was added and the tubes were vortexed and incubated for 30 minutes at 37° C. with shaking. PMA (0.1 ml) was added at a 10× concentration of the final concentration determined above. The samples were incubated for 10 minutes at 37° C. with shaking, chilled for 5 minutes at 4° C., and then centrifuged for 5 minutes at 550×g at 4° C. The supernatant (0.5 ml) was diluted with 0.5 ml normal saline as above and the absorbance was then determined at 550 nm. The percent change was calculated as follows: [formula] D-sphingosine (Sigma) used as reference standard.
Human neutrophils were first isolated according to Lherer et al. ((1981) J. Clinical Invest. 68:1314) and then tested for stimulation of superoxide anion release with phorbol--12,13-myristate acetate (PMA) in a dose-dependent manner. […]

[8] = tested on: normal human epidermal keratinocyte (NHEK) cells; assay: Human Keratinocyte Inhibition (3H TdR Assay); type: cell-based; conditions: 24 h incubation, 3H-thymidine
Method: Proliferating normal human epidermal keratinocyte (NHEK) cells were obtained in the second passage and grown in keratinocyte growth medium, KGM (Clonetics, Inc.) at 37° C., 5% CO2. The cells were trypsinized (0.25%), centrifuged, counted with a hemocytometer, and seeded at a concentration of 5000 cells in 100 μl well in a 96-well microtiter plate.
After the cells were allowed to attach to the microtiter plate overnight, test agents were titrated to determine the dose response. This was done by adding each test agent dilution in quadruplicate to the plate at 2× final concentration in 100 μl to bring the total volume of each well to 200 μl. Culture media with no test agent added was used as a normal control. Duplicate sets of plates were established.
After twenty-four hours of incubation with test compounds 37° C. and 5% CO2, […] of 0.01 mCi/ml tritiated thymidine (New England Nuclear) was added to each well and allowed to incubate for another 4 hours under the same conditions.
Supernatant was aspirated and discarded and […] of 0.05% trypsin (Gibco) was added to each cell. Cells were checked microscopically to determine detachment from surfaces and then harvested onto glass filters. The filters were then placed in vials to which scintillant was added and counted for one minute each in a scintillation counter.
Determine mean cpm of wells containing test agent (n=4) or KGM control (n=16). Calculate % of control by the formula: [formula]
The IC50, or connection necessary to inhibit 50% of control, of each test agent was determined by plotting % control vs log concentration for each dilution and then linear forecasting the 50% control value onto the X axis on a Quatro Pro computer program. Only regression values with a correlation coefficient greater than 0.9 were considered acceptable.

[9] = target: cAMP dependent protein kinase (PKA); assay: cAMP Dependent Protein Kinase (PKA) Assay; type: biochemical
Method: Compounds found to be inhibitors of protein kinase C were tested for inhibitory activity against cAMP dependent protein kinase (PKA). This enzyme, like protein kinase C, plays an important role in cell-cell communication and is activated by a second messenger, cAMP. Secondary screening against PKA is useful for ascertaining the selectivity of the compounds of the invention.
The catalytic subunit of PKA (Sigma Chemical Company, St. Louis, Mo.) was mixed with buffer before addition of the inhibitor in dimethylsulfoxide (DMSO). Potential inhibitor compounds were added to the assay in dimethylsulfoxide at two concentrations to give final inhibitor concentrations of 30 and 150 μM, respectively. The assay was started by the addition of ^32 P-ATP and the reaction was allowed to proceed for 10 min before stopping with 25% trichloroacetic acid (TCA) and 1.0 mg/ml bovine serum albumin (BSA). Phosphorylated protein was then isolated by filtration and the radioactivity was counted by a beta scintillation counter.

| IC50 [1] | IC50 [2] | IC50 [3] | IC50 [4] | IC50 [5] | IC50 [6] | IC50 ([7]; PMA-stimulated human neutrophils) | IC50 ([9]; catalytic subunit of PKA) | effect on PKA activity ([9]; result in words) | SMILES | IC50 [7] | IC50 [8] |
| --- | --- | --- | --- | --- | --- | --- | --- | --- | --- | --- | --- |
| > 150 µM | 90 µM | > 150 µM | > 150 µM | 88 µM | > 150 µM | – | – | – | Cc1cc(C)nc(NS(=O)(=O)c2ccc(N=C3C=C(Nc4ccc(S(=O)(=O)Nc5cc(C)cc(C)n5)cc4)C(=O)c4ccccc43)cc2)c1 [Compound 3aj] | – | – |
| – | 116 µM | 35 µM | – | 16 µM | – | 6.83 µM | – | – | O=C1C(Nc2ccc(S(=O)(=O)Nc3ncccn3)cc2)=CC(=Nc2ccc(S(=O)(=O)Nc3ncccn3)cc2)c2ccccc21 [Compound 6k] | – | – |
| – | – | – | – | – | – | – | – | – | CCCCCCCCCCCCC/C=C/[C@@H](O)[C@@H](N)CO [D--sphingosine, D-sphingosine, reference compound] | 2.85 µM | – |
| 50 µM | 35 µM | – | > 150 µM | 29 µM | 39 µM | – | > 150 µM | did not effect on PKA activity | Cc1noc(NS(=O)(=O)c2ccc(N=C3C=C(Nc4ccc(S(=O)(=O)Nc5onc(C)c5C)cc4)C(=O)c4ccccc43)cc2)c1C [Compound 6b] | – | 16.7 µM |
| > 150 µM | 125 µM | > 150 µM | > 150 µM | 76 µM | > 150 µM | – | – | – | N=C(N)NS(=O)(=O)c1ccc(N=C2C=C(Nc3ccc(S(=O)(=O)NC(=N)N)cc3)C(=O)c3ccccc32)cc1 [Compound 3ab] | – | – |
| 99 µM | 100 µM | > 150 µM | – | 94 µM | 102 µM | – | – | – | CCCCCCCCCCCCCCCCNS(=O)(=O)c1ccc(N=C2C=C(Nc3ccc(S(=O)(=O)NCCCCCCCCCCCCCCCC)cc3)C(=O)c3ccccc32)cc1 [Compound 6o] | – | – |
